Laboratory results: EP4273147A1, “SUBSTITUTED SPIROLACTAMS, SALTS THEREOF AND THEIR USE AS HERBICIDALLY ACTIVE SUBSTANCES” (Bayer Aktiengesellschaft, priority 2022, dated 2023)
Values belong to the compound of their own block, whether it stands above or below them.

Columns and labels:
[1] = system: ECHCG; test: Herbicidal pre-emergence action (Table A2); assay type: in vivo, Echinochloa crus-galli; conditions: visual grading after ca. 3 weeks
Outline: (§1)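 One monocotyledonous and one dicotyledonous weed species shared each pot. Seeds were sown in sandy loam and covered over with soil.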

[2] = system: LOLRI; test: Herbicidal pre-emergence action (Table A3); assay type: in vivo, Lolium rigidum; conditions: application rate 320 g/ha; visual grading after ca. 3 weeks
Outline: as §1

[3] = system: MATIN; test: Herbicidal pre-emergence action (Table A4); assay type: in vivo, Matricaria inodora; conditions: visual grading after ca. 3 weeks
Outline: as §1

[4] = system: SETVI; test: Herbicidal pre-emergence action (Table A5); assay type: in vivo, Setaria viridis; conditions: application rate 320 g/ha; visual grading after ca. 3 weeks
Outline: as §1

[5] = system: STEME; test: Herbicidal pre-emergence action (Table A6); assay type: in vivo, Stellaria media; conditions: application rate 320 g/ha; visual grading after ca. 3 weeks
Outline: as §1

[6] = system: POAAN; test: Herbicidal pre-emergence action (Table A7); assay type: in vivo, Poa annua; conditions: application rate 320 g/ha; visual grading after ca. 3 weeks
Outline: as §1

[7] = system: AMARE; test: Herbicidal pre-emergence action (Table A8); assay type: in vivo, Amaranthus retroflexus; conditions: application rate 1280 g/ha; visual grading after ca. 3 weeks vs untreated controls (100% = plants have died off, 0% = as control plants)
Outline: as §1

[8] = system: ABUTH; test: Herbicidal post-emergence action (Table B1); assay type: in vivo, Abutilon theophrasti; conditions: application rate 1280 g/ha; treated at one-leaf stage; rated visually after about 3 weeks vs untreated controls (100% = plants have died, 0% = like control plants)
Outline: (§2)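 Greenhouse post-emergence screen on potted weeds in sandy loam, treatment at one-leaf stage, visual % control scored ~3 weeks later against untreated plants.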

[9] = system: MATIN; test: Herbicidal post-emergence action (Table B6); assay type: in vivo, Matricaria inodora; conditions: rated visually after about 3 weeks
Outline: as §2

[10] = system: POAAN; test: Herbicidal post-emergence action (Table B7); assay type: in vivo, Poa annua; conditions: application rate 320 g/ha
Outline: as §2

[11] = system: STEME; test: Herbicidal post-emergence action (Table B9); assay type: in vivo, Stellaria media; conditions: application rate 1280 g/ha
Method: (§3) Seeds of mono- and dicotyledonous weed plants were placed in plastic pots in sandy loam soil (doubly sown with in each case one species of mono- or dicotyledonous weed plants per pot), covered with soil and cultivated in a greenhouse under controlled growth conditions. 2 to 3 weeks after sowing, the test plants were treated at the one-leaf stage. […] After the test plants had been kept in the greenhouse under optimum growth conditions for about 3 weeks, the activity of the preparations was rated visually in comparison to untreated controls. For example, 100% activity = the plants have died, 0% activity = like control plants.

[12] = system: AMARE; test: Herbicidal post-emergence action (Table B11); assay type: in vivo, Amaranthus retroflexus; conditions: application rate 1280 g/ha
Method: as §3

[13] = system: ALOMY; test: Herbicidal pre-emergence action, section C (Table C2); assay type: in vivo, Alopecurus myosuroides; conditions: application rate 80 g/ha; visual grading after ca. 3 weeks
[14] = system: DIGSA; test: Herbicidal pre-emergence action, section C (Table C5); assay type: in vivo, Digitaria sanguinalis; conditions: visual grading after ca. 3 weeks
[15] = system: ECHCG; test: Herbicidal pre-emergence action, section C (Table C6); assay type: in vivo, Echinochloa crus-galli; conditions: visual grading after ca. 3 weeks
[16] = system: LOLRI; test: Herbicidal pre-emergence action, section C (Table C7); assay type: in vivo, Lolium rigidum; conditions: application rate 320 g/ha; visual grading after ca. 3 weeks
[17] = system: SETVI; test: Herbicidal pre-emergence action, section C (Table C10); assay type: in vivo, Setaria viridis; conditions: application rate 320 g/ha; visual grading after ca. 3 weeks
[18] = system: VERPE; test: Herbicidal pre-emergence action, section C (Table C11); assay type: in vivo, Veronica persica; conditions: visual grading after ca. 3 weeks
Text: (§5) Seeds of mono- and dicotyledonous weed plants and crop plants were sown, in plastic or organic planting pots, in sandy loam and covered with soil. The compounds according to the invention, formulated in the form of wettable powders (WP) or as emulsifiable concentrates (EC), were applied to the surface of the covering soil as aqueous suspension or emulsion, with the addition of 0.5% of an additive, at an application rate of 600 1 of water/ha (converted). Following treatment, the pots were placed in a greenhouse and kept under optimum growth conditions for the test plants.

[19] = system: VIOTR; test: Herbicidal pre-emergence action, section C (Table C12); assay type: in vivo, Viola tricolor; conditions: visual grading after ca. 3 weeks
[20] = system: ZEAMX; test: Pre-emergence effects on crop plants (Table D1); assay type: in vivo, Zea mays; conditions: crop plant; application rate 320 g/ha; visual grading after ca. 3 weeks
[21] = system: TRZAS; test: Pre-emergence effects on crop plants (Table D2); assay type: in vivo, Triticum aestivum; conditions: crop plant; application rate 80 g/ha; visual grading after ca. 3 weeks
Text: (§6) Seeds of mono- and dicotyledonous weed plants and crop plants were sown, in plastic or organic planting pots, in sandy loam and covered with soil. The compounds according to the invention, formulated in the form of wettable powders (WP) or as emulsifiable concentrates (EC), were applied to the surface of the covering soil as aqueous suspension or emulsion, with the addition of 0.5% of an additive, at an application rate of 600 1 of water/ha (converted).
(§7) Following treatment, the pots were placed in a greenhouse and kept under optimum growth conditions for the test plants.

[22] = system: GLXMA; test: Pre-emergence effects on crop plants (Table D4); assay type: in vivo, Glycine max; conditions: crop plant; application rate 320 g/ha; visual grading after ca. 3 weeks
Text: as §6, §7

[23] = system: BRSNW; test: Pre-emergence effects on crop plants (Table D5); assay type: in vivo, Brassica napus; conditions: crop plant; application rate 80 g/ha; visual grading after ca. 3 weeks
[24] = system: ALOMY; test: Herbicidal post-emergence action, section E (Table E2); assay type: in vivo, Alopecurus myosuroides; conditions: application rate 320 g/ha; assessed visually after ca. 3 weeks
Text: (§4) 2 to 3 weeks after sowing, the test plants were sprayed in the single-leaf stage.

[25] = system: ECHCG; test: Herbicidal post-emergence action, section E (Table E5); assay type: in vivo, Echinochloa crus-galli; conditions: application rate 320 g/ha; assessed visually after ca. 3 weeks
Text: as §4

[26] = system: VERPE; test: Herbicidal post-emergence action, section E (Table E9); assay type: in vivo, Veronica persica; conditions: application rate 320 g/ha; assessed visually after ca. 3 weeks
Text: as §4

[27] = system: VIOTR; test: Herbicidal post-emergence action, section E (Table E10); assay type: in vivo, Viola tricolor; conditions: application rate 320 g/ha; assessed visually after ca. 3 weeks
Text: as §4

[28] = system: ZEAMX; test: Post-emergence effects on crop plants (Table F1); assay type: in vivo, Zea mays; conditions: crop plant ZEAMX
Text: as §4

[29] = system: TRZAS; test: Post-emergence effects on crop plants (Table F2); assay type: in vivo, Triticum aestivum; conditions: application rate 320 g/ha, crop plant TRZAS
Text: as §4

[30] = system: ORYZA; test: Post-emergence effects on crop plants (Table F3); assay type: in vivo, Oryza sativa; conditions: application rate 320 g/ha, crop plant ORYZA
Text: as §4

[31] = system: BRSNW; test: Post-emergence effects on crop plants (Table F5); assay type: in vivo, Brassica napus; conditions: application rate 320 g/ha, crop plant BRSNW
Text: as §4

[32] = system: ALOMY; test: Herbicidal pre-emergence action (Table A9); assay type: in vivo, Alopecurus myosuroides; conditions: application rate 1280 g/ha; visual grading after ca. 3 weeks
Outline: as §1

[33] = system: KCHSC; test: Herbicidal pre-emergence action (Table A10); assay type: in vivo, Kochia scoparia; conditions: application rate 320 g/ha; visual grading after ca. 3 weeks
Outline: as §1

[34] = system: VERPE; test: Herbicidal pre-emergence action (Table A11); assay type: in vivo, Veronica persica; conditions: application rate 1280 g/ha; visual grading after ca. 3 weeks
Outline: as §1

[35] = system: DIGSA; test: Herbicidal pre-emergence action (Table A12); assay type: in vivo, Digitaria sanguinalis; conditions: application rate 320 g/ha; visual grading after ca. 3 weeks
Outline: as §1

[36] = system: ECHCG; test: Herbicidal post-emergence action (Table B3); assay type: in vivo, Echinochloa crus-galli; conditions: application rate 1280 g/ha; rated visually after about 3 weeks
Outline: as §2

[37] = system: SETVI; test: Herbicidal post-emergence action (Table B8); assay type: in vivo, Setaria viridis; conditions: application rate 1280 g/ha
Outline: as §2

[38] = system: ABUTH; test: Herbicidal pre-emergence action, section C (Table C1); assay type: in vivo, Abutilon theophrasti; conditions: application rate 320 g/ha; visual grading after ca. 3 weeks
[39] = system: MATIN; test: Herbicidal pre-emergence action, section C (Table C8); assay type: in vivo, Matricaria inodora; conditions: application rate 320 g/ha; visual grading after ca. 3 weeks
Text: as §5

[40] = system: POLCO; test: Herbicidal pre-emergence action, section C (Table C9); assay type: in vivo, Polygonum convolvulus; conditions: application rate 320 g/ha; visual grading after ca. 3 weeks
[41] = system: SETVI; test: Herbicidal post-emergence action, section E (Table E8); assay type: in vivo, Setaria viridis; conditions: application rate 320 g/ha; assessed visually after ca. 3 weeks
Text: as §4

[42] = system: ORYZA; test: Pre-emergence effects on crop plants (Table D3); conditions: crop plant; application rate 80 g/ha; visual grading after ca. 3 weeks

- pre-emergence activity against ZEAMX [20]: 10%
- pre-emergence activity against TRZAS [21]: 20%
- pre-emergence activity against GLXMA [22]: 0%
- pre-emergence activity against BRSNW [23]: 10%
SMILES: O=C1N(Cc2c(F)ccc(F)c2F)CCCC12CCCN(Cc1c(F)ccc(F)c1F)C2=O (racemic) [I-013]
- pre-emergence activity against ECHCG ([1]; application rate 1280 g/ha): 100%
- pre-emergence activity against LOLRI [2]: 100%
- pre-emergence activity against MATIN ([3]; application rate 1280 g/ha): 90%
- pre-emergence activity against SETVI [4]: 100%
- pre-emergence activity against STEME [5]: 100%
- pre-emergence activity against POAAN [6]: 100%
- pre-emergence activity against AMARE [7]: 90%
- post-emergence activity against ABUTH [8]: 90%
- post-emergence activity against MATIN ([9]; application rate 320 g/ha): 90%
- post-emergence activity against POAAN [10]: 90%
- post-emergence activity against STEME [11]: 90%
- post-emergence activity against AMARE [12]: 90%
- pre-emergence activity against ALOMY [13]: 80%
- pre-emergence activity against DIGSA ([14]; application rate 80 g/ha): 100%
- pre-emergence activity against ECHCG ([15]; application rate 80 g/ha): 100%
- pre-emergence activity against LOLRI [16]: 90%
- pre-emergence activity against SETVI [17]: 90%
- pre-emergence activity against VERPE ([18]; application rate 80 g/ha): 90%
- pre-emergence activity against VIOTR ([19]; application rate 320 g/ha): 80%
- post-emergence activity against ALOMY [24]: 80%
- post-emergence activity against ECHCG [25]: 80%
- post-emergence activity against VERPE [26]: 80%
- post-emergence activity against VIOTR [27]: 90%
- post-emergence activity against ZEAMX ([28]; application rate 320 g/ha): 10%
- post-emergence activity against TRZAS [29]: 0%
- post-emergence activity against ORYZA [30]: 0%
- post-emergence activity against BRSNW [31]: 0%

- pre-emergence activity against ZEAMX [20]: 0%
- pre-emergence activity against TRZAS [21]: 20%
- pre-emergence activity against ORYZA [42]: 0%
SMILES: O=C1N(Cc2ccccc2)CCC12CCCN(Cc1cccc(F)c1F)C2=O (racemic) [I-028]
- pre-emergence activity against ECHCG ([1]; application rate 320 g/ha): 100%
- pre-emergence activity against LOLRI [2]: 100%
- pre-emergence activity against MATIN ([3]; application rate 320 g/ha): 90%
- pre-emergence activity against SETVI [4]: 100%
- pre-emergence activity against STEME [5]: 90%
- pre-emergence activity against POAAN [6]: 100%
- pre-emergence activity against ALOMY [32]: 90%
- pre-emergence activity against KCHSC [33]: 90%
- pre-emergence activity against VERPE [34]: 90%
- pre-emergence activity against DIGSA [35]: 90%
- post-emergence activity against ECHCG [36]: 90%
- post-emergence activity against MATIN ([9]; application rate 1280 g/ha): 90%
- post-emergence activity against SETVI [37]: 90%
- pre-emergence activity against ABUTH [38]: 90%
- pre-emergence activity against ALOMY [13]: 90%
- pre-emergence activity against DIGSA ([14]; application rate 320 g/ha): 100%
- pre-emergence activity against ECHCG ([15]; application rate 320 g/ha): 100%
- pre-emergence activity against LOLRI [16]: 100%
- pre-emergence activity against MATIN [39]: 80%
- pre-emergence activity against POLCO [40]: 90%
- pre-emergence activity against SETVI [17]: 100%
- pre-emergence activity against VERPE ([18]; application rate 320 g/ha): 90%
- pre-emergence activity against VIOTR ([19]; application rate 80 g/ha): 90%
- post-emergence activity against ECHCG [25]: 80%
- post-emergence activity against SETVI [41]: 80%
- post-emergence activity against ZEAMX ([28]; application rate 80 g/ha): 0%
- post-emergence activity against TRZAS [29]: 0%
- post-emergence activity against ORYZA [30]: 0%
